System: 485368-065-R3-J5-PDC spheroids with HUVEC/MSC, viability
Test: Anticancer human tumor 485368-065-R3-J5-PDC patient-derived pancreatic carcinoma cell line growth inhibition [RAS]
Settings: for IC50: curve of first compound; for viability, T/C: stronger effect = lower value
In short: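 Multi-cell-type spheroids: tumor cells plus HUVEC endothelial cells and mesenchymal stem cells. RAS-pathway inhibitors were combined with targeted agents, each dosed in half-log steps down from clinical Cmax, or from 10 microM when Cmax was unknown.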

[1] = second compound 0.000949 µM, first compound 0.0316 µM
[2] = second compound 0.000949 µM, first compound 0.1 µM
[3] = second compound 0.000949 µM, first compound 0.316 µM
[4] = second compound 0.000949 µM, first compound 1 µM
[5] = second compound 0.000949 µM, first compound 3.16 µM
[6] = second compound 0.000949 µM, first compound 10 µM
[7] = second compound 0.003 µM, first compound 0.0316 µM
[8] = second compound 0.003 µM, first compound 0.1 µM
[9] = second compound 0.003 µM, first compound 0.316 µM
[10] = second compound 0.003 µM, first compound 1 µM
[11] = second compound 0.003 µM, first compound 3.16 µM
[12] = second compound 0.003 µM, first compound 10 µM
[13] = second compound 0.00949 µM, first compound 0.0316 µM
[14] = second compound 0.00949 µM, first compound 0.1 µM
[15] = second compound 0.00949 µM, first compound 0.316 µM
[16] = second compound 0.00949 µM, first compound 1 µM
[17] = second compound 0.00949 µM, first compound 3.16 µM
[18] = second compound 0.00949 µM, first compound 10 µM
[19] = second compound 0.03 µM, first compound 0.0316 µM
[20] = second compound 0.03 µM, first compound 0.1 µM
[21] = second compound 0.03 µM, first compound 0.316 µM
[22] = second compound 0.03 µM, first compound 1 µM
[23] = second compound 0.03 µM, first compound 3.16 µM
[24] = second compound 0.03 µM, first compound 10 µM
[25] = second compound 0.0949 µM, first compound 0.0316 µM
[26] = second compound 0.0949 µM, first compound 0.1 µM
[27] = second compound 0.0949 µM, first compound 0.316 µM
[28] = second compound 0.0949 µM, first compound 1 µM
[29] = second compound 0.0949 µM, first compound 3.16 µM
[30] = second compound 0.0949 µM, first compound 10 µM
[31] = second compound 0.3 µM, first compound 0.0316 µM
[32] = second compound 0.3 µM, first compound 0.1 µM
[33] = second compound 0.3 µM, first compound 0.316 µM
[34] = second compound 0.3 µM, first compound 1 µM
[35] = second compound 0.3 µM, first compound 3.16 µM
[36] = second compound 0.3 µM, first compound 10 µM
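Further: spheroids exposed to agents for seven days before readout.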

SMILES: Cc1nc(N2CCC3(CC2)COC(C)C3N)c(CO)nc1Sc1ccnc(N)c1Cl (stereo unspecified) + CCn1c(-c2cc(N3CCN(C)CC3)cnc2C(C)OC)c2c3cc(ccc31)-c1csc(n1)CC(NC(=O)C1CC1C)C(=O)N1CCCC(N1)C(=O)OCC(C)(C)C2
- IC50 (second compound 0.000949 µM): < 0.0316 µM
- IC50 (second compound 0.003 µM): < 0.0316 µM
- IC50 (second compound 0.00949 µM): < 0.0316 µM
- IC50 (second compound 0.03 µM): < 0.0316 µM
- IC50 (second compound 0.0949 µM): < 0.0316 µM
- IC50 (second compound 0.3 µM): < 0.0316 µM
- viability, T/C [1]: 26.1%
- viability, T/C [2]: 18.6%
- viability, T/C [3]: 17.5%
- viability, T/C [4]: 15%
- viability, T/C [5]: 11.8%
- viability, T/C [6]: 8.82%
- viability, T/C [7]: 18.4%
- viability, T/C [8]: 15.9%
- viability, T/C [9]: 12.8%
- viability, T/C [10]: 10.7%
- viability, T/C [11]: 7.85%
- viability, T/C [12]: 4.73%
- viability, T/C [13]: 13.4%
- viability, T/C [14]: 12%
- viability, T/C [15]: 9.63%
- viability, T/C [16]: 9.5%
- viability, T/C [17]: 4.66%
- viability, T/C [18]: 2.44%
- viability, T/C [19]: 10.6%
- viability, T/C [20]: 10.2%
- viability, T/C [21]: 8.7%
- viability, T/C [22]: 5.25%
- viability, T/C [23]: 2.49%
- viability, T/C [24]: 1.01%
- viability, T/C [25]: 8.37%
- viability, T/C [26]: 8.31%
- viability, T/C [27]: 6.58%
- viability, T/C [28]: 3.11%
- viability, T/C [29]: 1.36%
- viability, T/C [30]: 0.74%
- viability, T/C [31]: 7.17%
- viability, T/C [32]: 6.81%
- viability, T/C [33]: 5.18%
- viability, T/C [34]: 2.89%
- viability, T/C [35]: 1.79%
- viability, T/C [36]: 0.68%

SMILES: NC1c2ccccc2OC12CCN(c1cnc3c(N4CCCc5ncccc54)n[nH]c3n1)CC2 (stereo unspecified) + CCn1c(-c2cc(N3CCN(C)CC3)cnc2C(C)OC)c2c3cc(ccc31)-c1csc(n1)CC(NC(=O)C1CC1C)C(=O)N1CCCC(N1)C(=O)OCC(C)(C)C2
- IC50 (second compound 0.000949 µM): < 0.0316 µM
- IC50 (second compound 0.003 µM): < 0.0316 µM
- IC50 (second compound 0.00949 µM): < 0.0316 µM
- IC50 (second compound 0.03 µM): < 0.0316 µM
- IC50 (second compound 0.0949 µM): < 0.0316 µM
- IC50 (second compound 0.3 µM): < 0.0316 µM
- viability, T/C [1]: 20.7%
- viability, T/C [2]: 16%
- viability, T/C [3]: 14.1%
- viability, T/C [4]: 10.6%
- viability, T/C [5]: 5.97%
- viability, T/C [6]: 4.14%
- viability, T/C [7]: 15.1%
- viability, T/C [8]: 12.5%
- viability, T/C [9]: 9.36%
- viability, T/C [10]: 4.72%
- viability, T/C [11]: 3.77%
- viability, T/C [12]: 1.44%
- viability, T/C [13]: 12.7%
- viability, T/C [14]: 8.1%
- viability, T/C [15]: 5.43%
- viability, T/C [16]: 2.3%
- viability, T/C [17]: 2.03%
- viability, T/C [18]: 0.85%
- viability, T/C [19]: 7.1%
- viability, T/C [20]: 6.69%
- viability, T/C [21]: 3.1%
- viability, T/C [22]: 1.62%
- viability, T/C [23]: 0.67%
- viability, T/C [24]: 0.58%
- viability, T/C [25]: 6.28%
- viability, T/C [26]: 4.31%
- viability, T/C [27]: 2.01%
- viability, T/C [28]: 0.85%
- viability, T/C [29]: 0.88%
- viability, T/C [30]: 0.54%
- viability, T/C [31]: 6.78%
- viability, T/C [32]: 3.56%
- viability, T/C [33]: 2.12%
- viability, T/C [34]: 1%
- viability, T/C [35]: 0.91%
- viability, T/C [36]: 0.53%

SMILES: Nc1ccn(C2OC(CO)C(O)C2(F)F)c(=O)n1 (stereo unspecified) + CCn1c(-c2cc(N3CCN(C)CC3)cnc2C(C)OC)c2c3cc(ccc31)-c1csc(n1)CC(NC(=O)C1CC1C)C(=O)N1CCCC(N1)C(=O)OCC(C)(C)C2
- IC50 (second compound 0.000949 µM): < 0.00316 µM
- IC50 (second compound 0.003 µM): < 0.00316 µM
- IC50 (second compound 0.00949 µM): < 0.00316 µM
- IC50 (second compound 0.03 µM): < 0.00316 µM
- IC50 (second compound 0.0949 µM): < 0.00316 µM
- IC50 (second compound 0.3 µM): < 0.00316 µM
- viability, T/C (second compound 0.000949 µM, first compound 0.00316 µM): 31%
- viability, T/C (second compound 0.000949 µM, first compound 0.01 µM): 15.8%
- viability, T/C [1]: 8.79%
- viability, T/C [2]: 6.33%
- viability, T/C [3]: 6.11%
- viability, T/C [4]: 5.93%
- viability, T/C (second compound 0.003 µM, first compound 0.00316 µM): 18.5%
- viability, T/C (second compound 0.003 µM, first compound 0.01 µM): 12.8%
- viability, T/C [7]: 9.81%
- viability, T/C [8]: 6.58%
- viability, T/C [9]: 9.3%
- viability, T/C [10]: 6.96%
- viability, T/C (second compound 0.00949 µM, first compound 0.00316 µM): 13.5%
- viability, T/C (second compound 0.00949 µM, first compound 0.01 µM): 10.9%
- viability, T/C [13]: 9.06%
- viability, T/C [14]: 8.14%
- viability, T/C [15]: 8.28%
- viability, T/C [16]: 7.89%
- viability, T/C (second compound 0.03 µM, first compound 0.00316 µM): 10.7%
- viability, T/C (second compound 0.03 µM, first compound 0.01 µM): 11%
- viability, T/C [19]: 7.61%
- viability, T/C [20]: 6.76%
- viability, T/C [21]: 7.98%
- viability, T/C [22]: 6.7%
- viability, T/C (second compound 0.0949 µM, first compound 0.00316 µM): 9.63%
- viability, T/C (second compound 0.0949 µM, first compound 0.01 µM): 8.06%
- viability, T/C [25]: 7.29%
- viability, T/C [26]: 5.92%
- viability, T/C [27]: 6.25%
- viability, T/C [28]: 6.08%
- viability, T/C (second compound 0.3 µM, first compound 0.00316 µM): 6.95%
- viability, T/C (second compound 0.3 µM, first compound 0.01 µM): 7.22%
- viability, T/C [31]: 7.67%
- viability, T/C [32]: 5.52%
- viability, T/C [33]: 7.58%
- viability, T/C [34]: 6.63%

From PubChem BioAssay AID2060902 (Molecular Pharmacology Branch, DTP, NCI, 2025)
